Results as given in BigSolDB 2.1.

Cc1ccc(-c2ncc(Cl)cc2-c2ccc(S(C)(=O)=O)cc2)cn1
solubility (mole fraction)
Conditions	293.2 K	298.2 K	303.2 K	308.2 K	313.2 K
in 1,4-butanediol	0.0605	0.0723	0.0873	0.104	0.124
in 1,4-dioxane	0.0445	0.073	0.111	0.173	0.265
in DMAc	0.0481	0.0811	0.141	0.236	0.387
in DMF	0.0369	0.069	0.122	0.215	0.374
in DMSO	0.0292	0.0605	0.126	0.253	0.495
in NMP	0.0658	0.108	0.169	0.265	0.411
in ethanol	0.0337	0.0537	0.0807	0.121	0.182
in ethylene glycol	0.113	0.119	0.129	0.139	0.153
in formamide	0.0586	0.113	0.225	0.425	0.779
in glycerin	0.0558	0.0566	0.0577	0.0593	0.0625
in isopropanol	0.0282	0.0452	0.0668	0.1	0.149
in methanol	0.0241	0.0379	0.0561	0.0843	0.125
in n-propanol	0.0505	0.0788	0.111	0.164	0.238
in propylene glycol	0.0472	0.0605	0.0754	0.0942	0.117
in water	1.36e-05	1.58e-05	1.86e-05	2.12e-05	2.44e-05

Conditions	solubility (mole fraction)
in PEG-200, 293.2 K	0.116
in PEG-200, 298.2 K	0.135
in PEG-200, 303.2 K	0.156
in PEG-200, 308.2 K	0.176
in PEG-200, 313.2 K	0.201
in PEG-400, 293.2 K	0.211
in PEG-400, 298.2 K	0.238
in PEG-400, 303.2 K	0.275
in PEG-400, 308.2 K	0.311
in PEG-400, 313.2 K	0.351
in PEG-600, 293.2 K	0.329
in PEG-600, 298.2 K	0.354
in PEG-600, 303.2 K	0.389
in PEG-600, 308.2 K	0.422
in PEG-600, 313.2 K	0.456
